The values below come from the OligoGym collection.

Where “and” joins values, the source holds several entries; their conditions need not be identical. Equal values may be shown once. HELM strings list units from the 5' end as sugar, base in round brackets, then linkage (d deoxyribose, r ribose, m 2'-O-methyl, p phosphodiester). Methylation of C is not given here. [moe] = 2'-O-(2-methoxyethyl) (MOE); [cEt] = constrained ethyl (cEt); [sp] = phosphorothioate linkage

This series addresses HBV. The following applies: ASO.

On to “RNA1{[moe](C)[sp].[moe](G)[sp].d(C)[sp].d(A)[sp].d(G)[sp].d(T)[sp].d(A)[sp].d(T)[sp].d(G)[sp].d(G)[sp].d(A)[sp].[moe](T)[sp].[moe](C)[sp].[moe](G)[sp].[moe](G)[sp].[moe](C)}$$$$V2.0”, for which the target mRNA inhibition reads like this: (HepG2, 0.0092593 µM) 6%; (HepG2, 0.0277778 µM) 31%; (HepG2, 0.07 µM) 76% and 71%; (HepG2, 0.0833333 µM) 56%; (HepG2, 0.25 µM) 80%.

Take “RNA1{[moe](T)[sp].[moe](T)[sp].[moe](C)[sp].[moe](C)[sp].d(G)[sp].d(C)[sp].d(A)[sp].d(G)[sp].d(T)[sp].d(A)[sp].d(T)[sp].d(G)[sp].d(G)[sp].[moe](A)[sp].[moe](T)[sp].[moe](C)[sp].[moe](G)}$$$$V2.0”: the target mRNA inhibition (HepG2, 0.07 µM) was 56% and 38%.

“RNA1{[moe](G)[sp].[moe](T)[sp].[moe](G)[sp].[moe](A)[sp].[moe](A)[sp].d(G)[sp].d(C)[sp].d(G)[sp].d(A)[sp].d(A)[sp].d(G)[sp].d(T)[sp].d(G)[sp].d(C)[sp].[moe](A)[sp].[moe](C)}$$$$V2.0”: the target mRNA inhibition (HepG2, 0.07 µM) is 70% and 58%.

Take “RNA1{[moe](G)[sp].[moe](G)[sp].[moe](C)[sp].d(A)[sp].d(T)[sp].d(A)[sp].d(G)[sp].d(C)[sp].d(A)[sp].d(G)[sp].d(C)[sp].d(A)[sp].d(G)[sp].[cEt](G)[sp].[cEt](A)[sp].[cEt](T)}$$$$V2.0”: the target mRNA inhibition (HepG2, 0.07 µM) was 56% and 44%.

Take “RNA1{[moe](G)[sp].[moe](A)[sp].[moe](A)[sp].[moe](G)[sp].[moe](C)[sp].d(G)[sp].d(A)[sp].d(A)[sp].d(G)[sp].d(T)[sp].d(G)[sp].d(C)[sp].d(A)[sp].d(C)[sp].[moe](A)[sp].[moe](C)}$$$$V2.0”: for the setting “HepG2, 0.07 µM”, the target mRNA inhibition was 70% and 67%.

Regarding “RNA1{[moe](A)[sp].[moe](C)[sp].d(T)[sp].d(G)[sp].d(G)[sp].d(A)[sp].d(G)[sp].d(C)[sp].d(C)[sp].d(A)[sp].d(C)[sp].[moe](C)[sp].[moe](A)[sp].[moe](G)[sp].[moe](C)[sp].[moe](A)[sp].[moe](G)}$$$$V2.0”, the target mRNA inhibition (HepG2, 0.07 µM) was 70% and 61%.

Turning to “RNA1{[moe](A)[sp].[moe](T)[sp].d(G)[sp].d(A)[sp].d(G)[sp].d(G)[sp].d(C)[sp].d(A)[sp].d(T)[sp].d(A)[sp].d(G)[sp].[moe](C)[sp].[moe](A)[sp].[moe](G)[sp].[moe](C)[sp].[moe](A)}$$$$V2.0”, the target mRNA inhibition (HepG2, 0.07 µM) is 53% and 32%.

In the case of “RNA1{[moe](C)[sp].[moe](T)[sp].[moe](G)[sp].d(A)[sp].d(A)[sp].d(C)[sp].d(A)[sp].d(A)[sp].d(A)[sp].d(T)[sp].d(G)[sp].d(G)[sp].d(C)[sp].[cEt](A)[sp].[cEt](C)[sp].[cEt](T)}$$$$V2.0”, the target mRNA inhibition (HepG2, 0.07 µM) is 64% and 74%.

“RNA1{[moe](T)[sp].[cEt](C)[sp].[cEt](C)[sp].d(A)[sp].d(C)[sp].d(C)[sp].d(A)[sp].d(C)[sp].d(G)[sp].d(A)[sp].d(G)[sp].d(T)[sp].d(C)[sp].[cEt](T)[sp].[cEt](A)[sp].[moe](G)}$$$$V2.0”: the target mRNA inhibition (HepG2, 0.07 µM) was 54% and 44%.

In turn, “RNA1{[moe](A)[sp].[moe](C)[sp].d(G)[sp].d(G)[sp].d(G)[sp].d(C)[sp].d(A)[sp].d(A)[sp].d(C)[sp].d(A)[sp].d(T)[sp].[moe](A)[sp].[moe](C)[sp].[moe](C)[sp].[moe](T)[sp].[moe](T)[sp].[moe](G)}$$$$V2.0” registered a target mRNA inhibition (HepG2, 0.07 µM) of 46%.

For “RNA1{[moe](G)[sp].[cEt](G)[sp].[cEt](C)[sp].d(A)[sp].d(C)[sp].d(A)[sp].d(G)[sp].d(C)[sp].d(T)[sp].d(T)[sp].d(G)[sp].d(G)[sp].d(A)[sp].[cEt](G)[sp].[cEt](G)[sp].[moe](C)}$$$$V2.0”, under “HepG2, 0.07 µM”, the target mRNA inhibition was 36% and 39%.

Regarding “RNA1{[moe](G)[sp].[cEt](A)[sp].d(G)[sp].d(A)[sp].d(G)[sp].d(A)[sp].d(A)[sp].d(G)[sp].d(T)[sp].d(C)[sp].d(C)[sp].d(A)[sp].[cEt](C)[sp].[moe](C)[sp].[cEt](A)[sp].[moe](C)}$$$$V2.0”, for the setting “HepG2, 0.07 µM”, the target mRNA inhibition is 42% and 56%.
